Results from ChEMBL document CHEMBL6127085, “Design, synthesis and evaluation of novel LpxC inhibitors containing a hydrazone moiety as Gram-negative antibacterial agents” (Eur J Med Chem, 2024).
Values after ≈ are worked out from the molar mass of the structure shown.

Key:
[1] = Stability in mouse plasma at 1 uM incubated for 6 hrs by LC-MS/MS analysis; format: ADME, cell-free; conditions: read-out: Stability
Escherichia coli = experiment: Antibacterial activity against Escherichia coli ATCC25922 assessed as reduction in bacterial growth measured after 18 to 24 hrs by CLSI protocol based method; format: functional; conditions: time 18-24 hrs
Pseudomonas aeruginosa [2] = experiment: Antibacterial activity against Pseudomonas aeruginosa ATCC27853 assessed as reduction in bacterial growth measured after 18 to 24 hrs by CLSI protocol based method; format: functional; conditions: time 18-24 hrs
Pseudomonas aeruginosa [3] = experiment: Antibacterial activity against Pseudomonas aeruginosa clinical isolate PAE22-1 assessed as reduction in bacterial growth measured after 18 to 24 hrs by CLSI protocol based method; format: functional; conditions: time 18-24 hrs
Klebsiella pneumoniae [4] = experiment: Antibacterial activity against Klebsiella pneumoniae ATCC700603 assessed as reduction in bacterial growth measured after 18 to 24 hrs by CLSI protocol based method; format: functional; conditions: time 18-24 hrs
Klebsiella pneumoniae [5] = experiment: Antibacterial activity against Klebsiella pneumoniae clinical isolate KPN+22-1 assessed as reduction in bacterial growth measured after 18 to 24 hrs by CLSI protocol based method; format: functional; conditions: time 18-24 hrs
[6] = Metabolic stability in human liver microsomes assessed as half life at 1 uM preincubated for 5 mins followed by NADPH addition and measured after 5 to 60 mins by LC-MS analysis; format: ADME, Microsome; conditions: liver microsomes, time 10-65 min
[7] = Metabolic stability in rat liver microsomes assessed as half life at 1 uM preincubated for 5 mins followed by NADPH addition and measured after 5 to 60 mins by LC-MS analysis; format: ADME, Microsome; conditions: liver microsomes, time 10-65 min
[8] = Metabolic stability in mouse liver microsomes assessed as half life at 1 uM preincubated for 5 mins followed by NADPH addition and measured after 5 to 60 mins by LC-MS analysis; format: ADME, Microsome; conditions: liver microsomes, time 10-65 min
[9] = Metabolic stability in human liver microsomes assessed as intrinsic clearance at 1 uM preincubated for 5 mins followed by NADPH addition and measured after 5 to 60 mins by LC-MS analysis; format: ADME, Microsome; conditions: time 10-65 min, read-out: CLH
[10] = Metabolic stability in rat liver microsomes assessed as intrinsic clearance at 1 uM preincubated for 5 mins followed by NADPH addition and measured after 5 to 60 mins by LC-MS analysis; format: ADME, Microsome; conditions: liver microsomes, time 10-65 min, read-out: CLH
[11] = Metabolic stability in mouse liver microsomes assessed as intrinsic clearance at 1 uM preincubated for 5 mins followed by NADPH addition and measured after 5 to 60 mins by LC-MS analysis; format: ADME, Microsome; conditions: liver microsomes, time 10-65 min, read-out: CLH
[12] = Intrinsic clearance in human; format: ADME; conditions: read-out: CLH
[13] = Intrinsic clearance in rat; format: ADME; conditions: read-out: CLH
[14] = Intrinsic clearance in mouse; format: ADME, organism-based; conditions: read-out: CLH
HepG2 = experiment: Cytotoxicity against human HepG2 cells assessed as inhibition of cell growth measured after 48 hrs by MTT assay; format: functional, cell-based; conditions: HepG2, 48 h
[15] = Plasma protein binding in human assessed as drug recovery at 1 uM incubated for 6 hrs by LC-MS/MS analysis; format: ADME, cell-free; conditions: read-out: Drug recovery
[16] = Stability in human plasma at 1 uM incubated for 6 hrs by LC-MS/MS analysis; format: ADME, cell-free; conditions: read-out: Stability
[17] = Plasma protein binding in rat assessed as drug recovery at 1 uM incubated for 6 hrs by LC-MS/MS analysis; format: ADME, cell-free; conditions: read-out: Drug recovery
[18] = Stability in rat plasma at 1 uM incubated for 6 hrs by LC-MS/MS analysis; format: ADME, cell-free; conditions: read-out: Stability
[19] = Plasma protein binding in mouse assessed as drug recovery at 1 uM incubated for 6 hrs by LC-MS/MS analysis; format: ADME, cell-free; conditions: read-out: Drug recovery
[20] = Half life in male Sprague-Dawley rat at 10 mg/kg, IG measured upto 24 hrs by LC-MS analysis; format: ADME, organism-based; conditions: in vivo, po
[21] = Tmax in male Sprague-Dawley rat at 10 mg/kg, IG measured upto 24 hrs by LC-MS analysis; format: ADME, organism-based; conditions: in vivo, po
[22] = Cmax in male Sprague-Dawley rat at 10 mg/kg, IG measured upto 24 hrs by LC-MS analysis; format: ADME, organism-based; conditions: in vivo, po
[23] = AUC (0 to t) in male Sprague-Dawley rat at 10 mg/kg, IG measured upto 24 hrs by LC-MS analysis; format: ADME, organism-based; conditions: in vivo, po
[24] = MRT (0 to t) in male Sprague-Dawley rat at 10 mg/kg, IG measured upto 24 hrs by LC-MS analysis; format: ADME, organism-based; conditions: in vivo, po
[25] = Oral bioavailability in male Sprague-Dawley rat at 10 mg/kg, IG measured upto 24 hrs by LC-MS analysis; format: ADME, organism-based; conditions: in vivo
[26] = Half life in male Sprague-Dawley rat at 1 mg/kg, iv measured upto 24 hrs by LC-MS analysis; format: ADME, organism-based; conditions: in vivo
[27] = AUC (0 to t) in male Sprague-Dawley rat at 1 mg/kg, iv measured upto 24 hrs by LC-MS analysis; format: ADME, organism-based; conditions: in vivo
[28] = Clearance in male Sprague-Dawley rat at 1 mg/kg, iv measured upto 24 hrs by LC-MS analysis; format: ADME, organism-based; conditions: in vivo
[29] = MRT (0 to t) in male Sprague-Dawley rat at 1 mg/kg, iv measured upto 24 hrs by LC-MS analysis; format: ADME, organism-based; conditions: in vivo
[30] = Volume of distribution at steady state in male Sprague-Dawley rat at 1 mg/kg, iv measured upto 24 hrs by LC-MS analysis; format: ADME, organism-based; conditions: in vivo, read-out: Vdss

## C[C@@H](O)[C@H](NC(=O)c1ccc(C#Cc2ccc(CN3CCOCC3)cc2)cc1)C(=O)NO
[1]
  remaining at 6 h, 1 µM: 93.2%
Escherichia coli
  MIC: 0.5 µg/mL (≈ 1.14 µM)
Pseudomonas aeruginosa [2]
  MIC: 4 µg/mL (≈ 9.14 µM)
Pseudomonas aeruginosa [3]
  MIC: 2 µg/mL (≈ 4.57 µM)
Klebsiella pneumoniae [4]
  MIC: 8 µg/mL (≈ 18.3 µM)
Klebsiella pneumoniae [5]
  MIC: 1 µg/mL (≈ 2.29 µM)
[6]
  half-life at 1 µM: 16.8 h
[7]
  half-life at 1 µM: 0.362 h
[8]
  half-life at 1 µM: 1.23 h
[9]
  microsomal CLint at 1 µM: 1.38 µL/min/mg
[10]
  microsomal CLint at 1 µM: 64 µL/min/mg
[11]
  microsomal CLint at 1 µM: 18.8 µL/min/mg
[12]
  CLint scaled: 1.3 mL/min/kg
[13]
  CLint scaled: 115 mL/min/kg
[14]
  CLint scaled: 74.2 mL/min/kg
HepG2
  IC50: > 30 µM
[15]
  recovery at 6 h, 1 µM: 101%
[16]
  remaining at 6 h, 1 µM: 106%
[17]
  recovery at 6 h, 1 µM: 91.7%
[18]
  remaining at 6 h, 1 µM: 94.5%
[19]
  recovery at 6 h, 1 µM: 98.6%
[20]
  half-life: 1.12 h
[21]
  Tmax: 0.25 h
[22]
  Cmax: 262 ng/mL
[23]
  AUC(0-t) at 24 h: 243 ng·h/mL
[24]
  MRT last at 24 h: 1.09 h
[25]
  bioavailability: 10.6%
[26]
  half-life: 0.29 h
[27]
  AUC(0-t) at 24 h: 249 ng·h/mL
[28]
  clearance: 66.7 mL/min/kg
[29]
  MRT last at 24 h: 0.24 h
[30]
  Vd: 0.98 L/kg

## C[C@@H](O)[C@H](NC(=O)c1ccc(C#Cc2ccc(/C=N/N3CCNCC3)cc2)cc1)C(=O)NO
Escherichia coli
  MIC: 4 µg/mL (≈ 8.9 µM)
Pseudomonas aeruginosa [2]
  MIC: > 64 µg/mL
Pseudomonas aeruginosa [3]
  MIC: > 64 µg/mL
Klebsiella pneumoniae [4]
  MIC: > 64 µg/mL
Klebsiella pneumoniae [5]
  MIC: > 64 µg/mL

## CCN1CCN(/N=C/c2ccc(C#Cc3ccc(C(=O)N[C@H](C(=O)NO)[C@@H](C)O)cc3)cn2)CC1
Escherichia coli
  MIC: 16 µg/mL (≈ 33.4 µM)
Pseudomonas aeruginosa [2]
  MIC: 4 µg/mL (≈ 8.36 µM)
Pseudomonas aeruginosa [3]
  MIC: 8 µg/mL (≈ 16.7 µM)
Klebsiella pneumoniae [4]
  MIC: > 64 µg/mL
Klebsiella pneumoniae [5]
  MIC: 64 µg/mL (≈ 134 µM)

## C[C@@H](O)[C@H](NC(=O)c1ccc(C#Cc2ccc(/C=N/N3CCN(C(=O)C4CC4)CC3)cc2)cc1)C(=O)NO
Escherichia coli
  MIC: 0.03 µg/mL (≈ 0.058 µM)
Pseudomonas aeruginosa [2]
  MIC: 2 µg/mL (≈ 3.86 µM)
Pseudomonas aeruginosa [3]
  MIC: 4 µg/mL (≈ 7.73 µM)
Klebsiella pneumoniae [4]
  MIC: 16 µg/mL (≈ 30.9 µM)
Klebsiella pneumoniae [5]
  MIC: 2 µg/mL (≈ 3.86 µM)
[6]
  half-life at 1 µM: 4.9 h
[7]
  half-life at 1 µM: 4.58 h
[8]
  half-life at 1 µM: 2.08 h
[9]
  microsomal CLint at 1 µM: 4.73 µL/min/mg
[10]
  microsomal CLint at 1 µM: 5.05 µL/min/mg
[11]
  microsomal CLint at 1 µM: 12.2 µL/min/mg
[12]
  CLint scaled: 4.47 mL/min/kg
[13]
  CLint scaled: 9.09 mL/min/kg
[14]
  CLint scaled: 48 mL/min/kg

## C[C@@H](O)[C@H](NC(=O)c1ccc(C#Cc2ccc(/C=N/N3CCN(C)CC3)nc2)cc1)C(=O)NO
Escherichia coli
  MIC: 8 µg/mL (≈ 17.2 µM)
Pseudomonas aeruginosa [2]
  MIC: 8 µg/mL (≈ 17.2 µM)
Pseudomonas aeruginosa [3]
  MIC: 8 µg/mL (≈ 17.2 µM)
Klebsiella pneumoniae [5]
  MIC: 32 µg/mL (≈ 68.9 µM)

## CC(=O)N1CCN(/N=C/c2ccc(C#Cc3ccc(C(=O)N[C@H](C(=O)NO)[C@@H](C)O)cc3)cc2)CC1
Escherichia coli
  MIC: 0.5 µg/mL (≈ 1.02 µM)
Pseudomonas aeruginosa [2]
  MIC: > 64 µg/mL
Pseudomonas aeruginosa [3]
  MIC: 2 µg/mL (≈ 4.07 µM)
Klebsiella pneumoniae [4]
  MIC: > 64 µg/mL
Klebsiella pneumoniae [5]
  MIC: 2 µg/mL (≈ 4.07 µM)

## CCOC(=O)N1CCN(/N=C/c2ccc(C#Cc3ccc(C(=O)N[C@H](C(=O)NO)[C@@H](C)O)cc3)cc2)CC1
Escherichia coli
  MIC: 0.06 µg/mL (≈ 0.115 µM)
Pseudomonas aeruginosa [2]
  MIC: 8 µg/mL (≈ 15.3 µM)
Pseudomonas aeruginosa [3]
  MIC: 8 µg/mL (≈ 15.3 µM)
Klebsiella pneumoniae [4]
  MIC: 16 µg/mL (≈ 30.7 µM)
Klebsiella pneumoniae [5]
  MIC: 4 µg/mL (≈ 7.67 µM)

## C#CCN1CCN(/N=C/c2ccc(C#Cc3ccc(C(=O)N[C@H](C(=O)NO)[C@@H](C)O)cc3)cc2)CC1
Escherichia coli
  MIC: 0.03 µg/mL (≈ 0.0615 µM)
Pseudomonas aeruginosa [2]
  MIC: 2 µg/mL (≈ 4.1 µM)
Pseudomonas aeruginosa [3]
  MIC: 8 µg/mL (≈ 16.4 µM)
Klebsiella pneumoniae [4]
  MIC: 32 µg/mL (≈ 65.6 µM)
Klebsiella pneumoniae [5]
  MIC: 2 µg/mL (≈ 4.1 µM)

## C[C@@H](O)[C@H](NC(=O)c1ccc(C#Cc2ccc(/C=N/N3CCCCC3)nc2)cc1)C(=O)NO
Escherichia coli
  MIC: 1 µg/mL (≈ 2.22 µM)
Pseudomonas aeruginosa [2]
  MIC: 16 µg/mL (≈ 35.6 µM)
Pseudomonas aeruginosa [3]
  MIC: 2 µg/mL (≈ 4.45 µM)
Klebsiella pneumoniae [5]
  MIC: 8 µg/mL (≈ 17.8 µM)

## CCC(=O)N1CCN(/N=C/c2ccc(C#Cc3ccc(C(=O)N[C@H](C(=O)NO)[C@@H](C)O)cc3)cn2)CC1
Escherichia coli
  MIC: 8 µg/mL (≈ 15.8 µM)
Pseudomonas aeruginosa [2]
  MIC: 16 µg/mL (≈ 31.6 µM)
Pseudomonas aeruginosa [3]
  MIC: 16 µg/mL (≈ 31.6 µM)
Klebsiella pneumoniae [4]
  MIC: > 64 µg/mL
Klebsiella pneumoniae [5]
  MIC: 32 µg/mL (≈ 63.2 µM)

## C[C@@H](O)[C@H](NC(=O)c1ccc(C#Cc2ccc(/C=N/N3CCN(C(=O)C(C)(C)C)CC3)nc2)cc1)C(=O)NO
Escherichia coli
  MIC: 4 µg/mL (≈ 7.48 µM)
Pseudomonas aeruginosa [2]
  MIC: 16 µg/mL (≈ 29.9 µM)
Pseudomonas aeruginosa [3]
  MIC: 16 µg/mL (≈ 29.9 µM)
Klebsiella pneumoniae [4]
  MIC: > 64 µg/mL
Klebsiella pneumoniae [5]
  MIC: 16 µg/mL (≈ 29.9 µM)

## C[C@@H](O)[C@H](NC(=O)c1ccc(C#Cc2ccc(/C=N/N3CCOCC3)nc2)cc1)C(=O)NO
Escherichia coli
  MIC: 4 µg/mL (≈ 8.86 µM)
Pseudomonas aeruginosa [2]
  MIC: 16 µg/mL (≈ 35.4 µM)
Pseudomonas aeruginosa [3]
  MIC: 2 µg/mL (≈ 4.43 µM)
Klebsiella pneumoniae [5]
  MIC: 16 µg/mL (≈ 35.4 µM)

## CCN1CCN(/N=C/c2ccc(C#Cc3ccc(C(=O)N[C@H](C(=O)NO)[C@@H](C)O)cc3)cc2)CC1
Escherichia coli
  MIC: 0.5 µg/mL (≈ 1.05 µM)
Pseudomonas aeruginosa [2]
  MIC: 4 µg/mL (≈ 8.38 µM)
Pseudomonas aeruginosa [3]
  MIC: 2 µg/mL (≈ 4.19 µM)
Klebsiella pneumoniae [4]
  MIC: 16 µg/mL (≈ 33.5 µM)
Klebsiella pneumoniae [5]
  MIC: 4 µg/mL (≈ 8.38 µM)
